Data from paper PMC4999093, “Novel NAD^+-Farnesal Dehydrogenase from Polygonum minus Leaves. Purification and Characterization of Enzyme in Juvenile Hormone III Biosynthetic Pathway in Plant” (PLoS ONE, 2016).

Test system: T1, NAD^+-farnesal dehydrogenase (P. minus farnesal dehydrogenase)
T1 construct: native enzyme purified from leaves, untagged
Assay: NADH formation at […] nm, Lineweaver-Burk
Format: biochemical, Persicaria minor
Conditions: 100 mM glycine-NaOH pH 9.5, 35°C

CC(C)=CCCC(C)=CC=O (mixture of isomers) [Citral, 3,7-dimethyl-2,6-octadienal]
Km (1.0 mM NAD+, substrate is a mixture of geranial and neral): 690 µM

CC(C)=CCC/C(C)=C/CC/C(C)=C/C=O (mixture of isomers) [Farnesal, 3,7,11-trimethyl-2,6,10-dodecatrienal]
Km (1.0 mM NAD+, substrate is a mixture of isomers): 130 µM

NC(=O)c1ccc[n+]([C@@H]2O[C@H](COP(=O)(O)OP(=O)(O)OC[C@H]3O[C@@H](n4cnc5c(N)ncnc54)[C@H](O)[C@@H]3O)[C@@H](O)[C@H]2O)c1 [NAD^+]
Km (co-substrate farnesal): 310 µM

O=C/C=C/c1ccccc1 [trans-cinnamaldehyde]
Km (1.0 mM NAD+): 860 µM

C/C(C=O)=C\c1ccccc1 [α-methylcinnamaldehyde]
Km (1.0 mM NAD+): 1280 µM
